Data on 5 compounds can be found in patent US6593334B1, “Camptothecin-taxoid conjugates as antimitotic and antitumor agents” (The University of North Carolina at Chapel Hill, priority 2002, dated 2003).

The test system of test [1] is KB (epidermoid carcinoma). In words: Human tumor cell replication assay (sulforhodamine B), KB. Format: cell-based. The conditions noted are these: KB cells; for Cell Line/ED50 KB: three days of continuous exposure, SRB assay. Here is the method: (§1) Human Tumor Cell Replication Assay. Compounds were tested as inhibitors of cell growth against a limited panel of solid tumor lines including KB (epidermoid carcinoma, CL 17) and a camptothecin-resistant sub-line called KB-CPT; HCT-8 (ileocecal adenocarcinoma, CCL 244); MCF-7 (breast adenocarcinoma, HTB 22); PC-3 (prostate adenocarcinoma, CRL 1435); 1A9 (ovarian carcinoma) and a paclitaxel resistant sub-line called PTX10 with mutated β-tubulin. Drug-resistant cell lines were generous gifts of Dr. Y. C. Cheng (Yale University, New Haven, Conn.) and Dr. P. Giannakakou (NIH, Bethesda, Md.). Cell lines were adapted for growth in RPMI-1640 medium supplemented with 25 mM Hepes, 2% NaHCO3, 10% (v/v) fetal calf serum and 100 μg/mL kanamycin. Cultures were maintained in a 5% CO2 atmosphere at 37° C. The sulforhodamine B microtiter plate assay described by Rubinstein et al. (1990) J. Natl. Cancer Inst. 82:1113, was used to evaluate compounds as inhibitors of cell replication. The ED50 value, the concentration of compound that inhibited cell line replication by 50% relative to control after three days of continuous exposure was interpolated from dose-response graphs fitted to data using Prizm (GraphPad software, San Diego, Calif.).
(§2) The five conjugates (16-20) were tested for cytotoxicity against a panel of human tumor cell lines (HTCL) including paclitaxel-resistant and camptothecin-resistant derivatives as described in Rubinstein et al. (1990) J. Natl. Cancer Inst. 82:1113. The results are shown in Table 2 with the values for paclitaxel (1) and camptothecin (2) given for comparison.
For orientation: Sulforhodamine B stains cellular protein and so reports cell mass.

The test system of test [2] is KB-CPT (camptothecin-resistant KB sub-line). Kind of test: Human tumor cell replication assay (sulforhodamine B), KB-CPT. Type of test: cell-based. The note with it: camptothecin-resistant KB-CPT cells, three days of continuous exposure, SRB assay. On the procedure:
as §1, §2

Another test concerns 1A9 (ovarian carcinoma). In words: Human tumor cell replication assay (sulforhodamine B), 1A9. Format: cell-based. The conditions noted are these: IA9 cells; for Cell Line/ED50 IA9: three days of continuous exposure, SRB assay. Here is the method: as §1, §2
The test system of test [3] is 1A9-PTX10 (paclitaxel resistant sub-line with mutated β-tubulin). Kind of test: Human tumor cell replication assay (sulforhodamine B), PTX10. Type of test: cell-based. The note with it: paclitaxel-resistant IA9-PTX10 cells, three days of continuous exposure, SRB assay. Here is the method: as §1, §2
Test [4] relates to HCT-8 (ileocecal adenocarcinoma). In words: Human tumor cell replication assay (sulforhodamine B), HCT-8. Format: cell-based. The note with it: HCT8 cells, three days of continuous exposure, SRB assay. Here is the method: as §1, §2
Test [5] deals with MCF-7 (breast adenocarcinoma). In words: Human tumor cell replication assay (sulforhodamine B), MCF-7. Type of test: cell-based. The conditions noted are these: MCF-7 cells, three days of continuous exposure, SRB assay. Here is the method: as §1, §2
For test [6], the system named is PC-3 (prostate adenocarcinoma). In words: Human tumor cell replication assay (sulforhodamine B), PC-3. Format: cell-based. The conditions noted are these: PC-3 cells, three days of continuous exposure, SRB assay. On the procedure:
as §1, §2

Test [7] concerns human tumor cell lines (HTCL). Kind of test: Human tumor cell line (HTCL) panel, mean over lines. Format: cell-based. The note with it: mean from HTCL data, does not include values for drug-resistant variants. Here is the method: as §1, §2
Test [8] deals with T1, human DNA Topoisomerase I (Homo sapiens, UniProt P11387).
T1 construct: purchased TopoGen, Columbus, Ohio
T1 sequence (P11387 1-765): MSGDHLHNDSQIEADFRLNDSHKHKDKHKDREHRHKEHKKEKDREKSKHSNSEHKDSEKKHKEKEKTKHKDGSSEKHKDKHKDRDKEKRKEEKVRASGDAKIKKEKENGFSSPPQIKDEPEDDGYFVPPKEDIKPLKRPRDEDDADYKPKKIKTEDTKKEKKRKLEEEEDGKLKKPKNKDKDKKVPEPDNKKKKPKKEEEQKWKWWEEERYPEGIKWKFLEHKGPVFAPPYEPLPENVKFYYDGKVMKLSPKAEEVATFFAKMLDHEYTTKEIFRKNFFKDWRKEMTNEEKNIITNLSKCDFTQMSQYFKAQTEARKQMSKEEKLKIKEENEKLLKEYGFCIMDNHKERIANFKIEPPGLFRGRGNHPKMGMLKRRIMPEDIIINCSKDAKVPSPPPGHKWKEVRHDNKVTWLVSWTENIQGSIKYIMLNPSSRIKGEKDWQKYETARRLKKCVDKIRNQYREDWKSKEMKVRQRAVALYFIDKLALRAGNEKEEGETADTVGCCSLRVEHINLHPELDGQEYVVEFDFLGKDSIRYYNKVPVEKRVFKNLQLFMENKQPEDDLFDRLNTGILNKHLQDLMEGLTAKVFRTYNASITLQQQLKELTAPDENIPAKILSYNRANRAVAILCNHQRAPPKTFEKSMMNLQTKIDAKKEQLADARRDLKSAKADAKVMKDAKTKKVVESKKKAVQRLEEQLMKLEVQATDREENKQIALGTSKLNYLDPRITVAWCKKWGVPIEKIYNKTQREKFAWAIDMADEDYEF
Kind of test: DNA Topoisomerase I activity assay (plasmid DNA relaxation). Format: biochemical. Here is the method: DNA Topoisomerase I Activity Assay. Compounds were tested as inhibitors of enzyme catalyzed plasmid DNA relaxation. Reactions contained 0.5 μg pBR322 DNA and 0.5 U human DNA Topoisomerase I (TopoGen, Columbus, Ohio), compounds at 50 μM and buffer components described previously in Krishnan et al. (2000) Anticancer Drug Design 15:255. After 15 min at 37° C., reactions were terminated by adding proteinase K (0.1 mg/mL) and 1% (w/v) SDS. After 1 hour at 50° C., DNA was resolved on a 1% (w/v) agarose gel containing […] ethidium bromide in standard TBE buffer, and photographed under UV light using polaroid 667 film.
Conjugates 16-20 were also tested as inhibitors of human DNA topo I activity in vitro (FIG. 4) in the manner as described in Krishnan et al. (2000) Anticancer Drug Design 15:255. […] None of the conjugates inhibited DNA relaxation.

[9] abbreviates: at lowest test concentration (inhibition >50%).

As to `CC[C@@]1(O)C(=O)OCc2c1cc1n(c2=O)Cc2cc3ccccc3nc2-1` [Camptothecin, camptothecin], the “Cell Line/ED50 KB” value in test [1] is given as −10.8 log10 M. Moreover, the “Cell Line/ED50 KB-CPT” value in [2] is −7.5 log10 M. Besides, the “Cell Line/ED50 IA9” value in the test with 1A9 (ovarian carcinoma) is listed as −10.2 log10 M. The “Cell Line/ED50 IA9-PTX10” value in test [3] was −9.4 log10 M. In test [4], the “Cell Line/ED50 HCT8” value is −9.3 log10 M. The “Cell Line/ED50 MCF-7” value in test [5] is given as −7.1 log10 M. In addition, the “Cell Line/ED50 PC-3” value in test [6] is recorded as −7.1 log10 M. The “Mean ED50” value in [7] is −8.9 log10 M.

In the case of `CCC1(O)C(=O)OCc2c1cc1n(c2=O)Cc2c-1nc1ccccc1c2C=NCCC(=O)OC1CC2OCC2(OC(C)=O)C2C(OC(=O)c3ccccc3)C3(O)CC(OC(=O)C(O)C(NC(=O)c4ccccc4)c4ccccc4)C(C)=C(C(OC(C)=O)C(=O)C12C)C3(C)C` (stereo not drawn) [Compound 16], the results for the “observed percentage inhibition (bracketed value)” value (in test [1] (setting [9]); in the test with 1A9 (ovarian carcinoma) (setting [9])) were “(67) %” and “(76) %”, respectively. Moreover, in [1], the “Cell Line/ED50 KB” value is on record as under −11.0 log10 M. Further, the “Cell Line/ED50 KB-CPT” value in test [2] is listed as −11.1 log10 M. Also, the “Cell Line/ED50 IA9” value in the test with 1A9 (ovarian carcinoma) was under −11.0 log10 M. Also, the “Cell Line/ED50 IA9-PTX10” value in test [3] is −10.9 log10 M. Further, in [4], the “Cell Line/ED50 HCT8” value is given as −10.6 log10 M. Moreover, in [5], the “Cell Line/ED50 MCF-7” value is −7.1 log10 M. The “Cell Line/ED50 PC-3” value in test [6] is given as −7.0 log10 M. Also, the “Mean ED50” value in test [7] was under −9.3 log10 M. Further, the “inhibition of human DNA topo I activity in vitro” value (“inhibition … in vitro” below) in test [8] is “only marginal activity”.

For `CCC1(O)C(=O)OCc2c1cc1n(c2=O)Cc2c-1nc1ccccc1c2C=NCCCC(=O)OC1CC2OCC2(OC(C)=O)C2C(OC(=O)c3ccccc3)C3(O)CC(OC(=O)C(O)C(NC(=O)c4ccccc4)c4ccccc4)C(C)=C(C(OC(C)=O)C(=O)C12C)C3(C)C` (stereo not drawn) [Compound 17], the “Cell Line/ED50 KB” value in test [1] is recorded as −10.4 log10 M. Besides, in test [2], the “Cell Line/ED50 KB-CPT” value is −9.7 log10 M. For the same compound, the “Cell Line/ED50 IA9” value in the test on 1A9 (ovarian carcinoma) is listed as −10.2 log10 M. Also, the “Cell Line/ED50 IA9-PTX10” value in [3] was −10.5 log10 M. In addition, the “Cell Line/ED50 HCT8” value in test [4] is −10.0 log10 M. Further, the “Cell Line/ED50 MCF-7” value in [5] is listed as −7.1 log10 M. The “Cell Line/ED50 PC-3” value in test [6] was −7.1 log10 M. Also, the “Mean ED50” value in [7] is given as −9.0 log10 M. Besides, in test [8], the “inhibition … in vitro” value was “inactive”.

For `CCC1(O)C(=O)OCc2c1cc1n(c2=O)Cc2c-1nc1ccccc1c2C=NCCCCCC(=O)OC1CC2OCC2(OC(C)=O)C2C(OC(=O)c3ccccc3)C3(O)CC(OC(=O)C(O)C(NC(=O)c4ccccc4)c4ccccc4)C(C)=C(C(OC(C)=O)C(=O)C12C)C3(C)C` (stereo not drawn) [Compound 18], the “Cell Line/ED50 KB” value in test [1] is −9.3 log10 M. In addition, the “Cell Line/ED50 KB-CPT” value in [2] is reported as −8.1 log10 M. In the test on 1A9 (ovarian carcinoma), the “Cell Line/ED50 IA9” value is on record as −10.0 log10 M. Moreover, the “Cell Line/ED50 IA9-PTX10” value in test [3] is −10.5 log10 M. In addition, the “Cell Line/ED50 HCT8” value in test [4] is listed as −10.6 log10 M. Also, in test [5], the “Cell Line/ED50 MCF-7” value is on record as −7.5 log10 M. Besides, the “Cell Line/ED50 PC-3” value in [6] is listed as −7.5 log10 M. In test [7], the “Mean ED50” value is recorded as −9.0 log10 M. Besides, the “inhibition … in vitro” value in test [8] is reported as “only marginal activity”.

With `CC(=O)O[C@H]1C(=O)[C@@]2(C)[C@H]([C@H](OC(=O)c3ccccc3)[C@]3(O)C[C@H](OC(=O)[C@H](O)[C@@H](NC(=O)c4ccccc4)c4ccccc4)C(C)=C1C3(C)C)[C@]1(OC(C)=O)CO[C@@H]1C[C@@H]2O` [Paclitaxel, reference compound], the “Cell Line/ED50 KB” value in [1] is −12.1 log10 M. In [2], the “Cell Line/ED50 KB-CPT” value is −12.2 log10 M. The “Cell Line/ED50 IA9” value in the test on 1A9 (ovarian carcinoma) is given as −12.2 log10 M. In addition, the “Cell Line/ED50 IA9-PTX10” value in test [3] is listed as −11.7 log10 M. The “Cell Line/ED50 HCT8” value in test [4] is listed as −7.1 log10 M. For the same compound, the “Cell Line/ED50 MCF-7” value in test [5] was −13.9 log10 M. The “Cell Line/ED50 PC-3” value in test [6] was −10.3 log10 M. In test [7], the “Mean ED50” value is on record as −11.1 log10 M.
